Experimental data as given in patent publication US9145424B2, “Treatment of amyotrophic lateral sclerosis” (Northwestern University, priority 2008, dated 2015).
Like-named read-outs stand apart in the source and are kept apart here.

Tested on: PC12 cells that express mutant G93A SOD1
Assay: Mutant SOD1-induced cytotoxicity protection assay
Conditions: for Corresponding % viability: rat, 48 h
Procedure: This idea was tested by examining the sensitivity of PC12 cells to SOD1 aggregates in the presence and absence of proteasome inhibitor MG132. PC12 cells expressing no SOD1, wild type SOD1, G85R SOD1 or G93A SOD1 were grown with or without MG132 (FIG. 1).
PC12 cells expressing G93A SOD1 were treated with 100 nM MG132 with or without co-treatment with geldanamycin or radicicol.

[1] = Rattus norvegicus, PC-12, read-out: Best EC50, PC12 G93A SOD1 cells, MG132, calcein-AM viability
[2] = Rattus norvegicus, PC-12, read-out: EC50 after Normalization, normalised with the corresponding 3299 EC50
[3] = read-out: Best EC50, PC12 G93A SOD1 cells, MG132, calcein-AM viability
[4] = read-out: EC50 after Normalization, normalised with the corresponding 3299 EC50

O=c1cc(CSc2ccccc2)[nH][nH]1 [CMB-053526-1]
EC50 [1]: 6850 nM
Corresponding % viability: 77%

CC(C)(C)c1ccc(SCc2cc(=O)[nH][nH]2)cc1 [CMB-053527-1]
EC50 [1]: 5380 nM
EC50 [2]: 2310 nM
Corresponding % viability: 150%

O=c1cc(CSc2ccc([N+](=O)[O-])cc2)[nH][nH]1 [CMB-053528-1]
EC50 [1]: 5590 nM
EC50 [2]: 2400 nM
Corresponding % viability: 136%

O=c1cc(CSc2ccc(Cl)cc2)[nH][nH]1 [CMB-053529-1]
EC50 [2]: 1930 nM
Corresponding % viability: 93%
EC50 [3]: 4490 nM

O=C1NN=C(CSc2ccccc2)C1=Cc1ccccc1 [CMB-053530-1]
EC50 [1]: > 32000 nM

O=c1cc(CSc2ccc(Br)cc2)[nH][nH]1 [CMB-053543-1]
EC50 [1]: 4240 nM
EC50 [2]: 1800 nM
Corresponding % viability: 94%

O=c1cc(CSc2ccc(Cl)c(Cl)c2)[nH][nH]1 [CMB-053544-1]
EC50 [1]: 2600 nM
EC50 [2]: 1890 nM
Corresponding % viability: 113%

O=c1cc(CSc2ccc(Cl)cc2Cl)[nH][nH]1 [CMB-053545-1]
EC50 [1]: 1580 nM
EC50 [2]: 1150 nM
Corresponding % viability: 124%

O=c1cc(CSc2ccc(Cl)cc2)[nH]n1-c1ccccc1 [CMB-086473-1]
EC50 [1]: 5110 nM
EC50 [2]: 3460 nM
Corresponding % viability: 109%

O=c1cc(C[S+]([O-])c2ccc(Cl)cc2)[nH]n1-c1ccccc1 (stereo not shown) [CMB-086474-1]
EC50 [1]: > 32000 nM

O=c1cc(CS(=O)(=O)c2ccc(Cl)cc2)[nH][nH]1 [CMB-086475-1]
EC50 [1]: 6920 nM
EC50 [2]: 4700 nM
Corresponding % viability: 110%

CN(C)c1ccc(SCc2cc(=O)[nH][nH]2)cc1 [CMB-086476-1]
EC50 [1]: 1650 nM
Corresponding % viability: 77%

COc1ccc(SCc2cc(=O)[nH][nH]2)cc1 [CMB-086477-1]
EC50 [1]: 4210 nM
EC50 [2]: 1810 nM
Corresponding % viability: 102%

O=c1cc(CSc2ccc(F)cc2)[nH][nH]1 [CMB-086478-1]
EC50 [1]: 4730 nM
EC50 [2]: 3440 nM
Corresponding % viability: 104%

Cc1ccc(C)c(SCc2cc(=O)[nH][nH]2)c1 [CMB-086479-1]
EC50 [1]: 220 nM
Corresponding % viability: 77%

O=c1cc(CSc2c(Cl)cccc2Cl)[nH][nH]1 [CMB-086480-1]
EC50 [1]: 260 nM
EC50 [2]: 950 nM
Corresponding % viability: 142%

Cc1cc(SCc2cc(=O)[nH][nH]2)c(C)cc1Cl [CMB-086481-1]
EC50 [2]: 390 nM
Corresponding % viability: 140%
EC50 [3]: 430 nM

Cc1cc([S+]([O-])Cc2cc(=O)[nH][nH]2)c(C)cc1Cl (stereo not shown) [CMB-086482-1]
EC50 [1]: 4470 nM
EC50 [2]: 2880 nM
Corresponding % viability: 123%

O=c1cc(CSc2ccc(F)cc2Cl)[nH][nH]1 [CMB-086832-1]
EC50 [1]: 1610 nM
Corresponding % viability: 68%

O=c1cc(CSc2cccc(Cl)c2)[nH][nH]1 [CMB-086833-1]
EC50 [1]: 250 nM
EC50 [2]: 1110 nM
Corresponding % viability: 148%

O=c1cc(CSc2ccccc2Cl)[nH][nH]1 [CMB-086834-1]
EC50 [1]: 840 nM
EC50 [2]: 3050 nM
Corresponding % viability: 123%

O=c1cc(CSc2cc(Cl)cc(Cl)c2)[nH][nH]1 [CMB-086835-1]
EC50 [2]: 170 nM
Corresponding % viability: 134%
EC50 [3]: 80 nM

O=c1cc(CSc2cc(Cl)cc(Cl)c2)[nH][nH]1 [CMB-086835-2]
Corresponding % viability: 129%
EC50 [3]: 300 nM
EC50 [4]: 290 nM

O=c1cc(CSc2ccc(Cl)cc2)[nH][nH]1 [CMB-086836-1]
EC50 [1]: 4140 nM
Corresponding % viability: 75%

O=c1cc(CSc2ccc(-c3ccccc3)cc2)[nH][nH]1 [CMB-086883-1]
EC50 [1]: 9440 nM
EC50 [2]: 4060 nM
Corresponding % viability: 115%

CC(C)c1ccccc1SCc1cc(=O)[nH][nH]1 [CMB-086899-1]
EC50 [1]: 400 nM
EC50 [2]: 480 nM
Corresponding % viability: 106%

O=c1cc(CSCCOc2ccccc2)[nH][nH]1 [CMB-086900-1]
EC50 [1]: 6210 nM
EC50 [2]: 7520 nM
Corresponding % viability: 97%

CCc1ccccc1SCc1cc(=O)[nH][nH]1 [CMB-086901-1]
EC50 [1]: 2060 nM
EC50 [2]: 2500 nM
Corresponding % viability: 106%

O=c1cc(COc2ccc(Cl)cc2)[nH][nH]1 [CMB-086902-1]
EC50 [2]: 650 nM
Corresponding % viability: 131%
EC50 [3]: 570 nM

O=c1cc(COc2ccc(Cl)cc2)[nH][nH]1 [CMB-086902-2]
Corresponding % viability: 117%
EC50 [3]: 690 nM
EC50 [4]: 790 nM

O=c1cc(COc2ccc(Cl)cc2)[nH][nH]1 [CMB-086902-3]
Corresponding % viability: 120%
EC50 [3]: 3430 nM
EC50 [4]: 770 nM

CCc1ccc(S(=O)(=O)Cc2cc(=O)[nH][nH]2)cc1 [CMB-087210-1]
EC50 [1]: 990 nM
EC50 [2]: 900 nM
Corresponding % viability: 101%

CC(C)c1ccc(S(=O)(=O)Cc2cc(=O)[nH][nH]2)cc1 [CMB-087211-1]
EC50 [1]: 750 nM
EC50 [2]: 680 nM
Corresponding % viability: 103%

CCCCc1ccc(S(=O)(=O)Cc2cc(=O)[nH][nH]2)cc1 [CMB-087212-1]
EC50 [1]: 990 nM
EC50 [2]: 900 nM
Corresponding % viability: 93%

Cc1cc(S(=O)(=O)Cc2cc(=O)[nH][nH]2)c(C)cc1Cl [CMB-087213-1]
EC50 [1]: 2280 nM
EC50 [2]: 1470 nM
Corresponding % viability: 116%

CCc1cccc(OCc2cc(=O)[nH][nH]2)c1 [CMB-087214-1]
EC50 [1]: 1120 nM
EC50 [2]: 720 nM
Corresponding % viability: 125%

CC(C)(C)c1cccc(OCc2cc(=O)[nH][nH]2)c1 [CMB-087215-1]
EC50 [1]: 1060 nM
EC50 [2]: 870 nM
Corresponding % viability: 141%

O=c1cc(COc2cc(Cl)cc(Cl)c2)[nH][nH]1 [CMB-087229-1]
Corresponding % viability: 129%
EC50 [3]: 50 nM
EC50 [4]: 67 nM

O=c1cc(COc2cc(Cl)cc(Cl)c2)[nH][nH]1 [CMB-087229-5]
Corresponding % viability: 123%
EC50 [3]: 550 nM
EC50 [4]: 310 nM

O=c1cc(CS(=O)(=O)c2cc(Cl)cc(Cl)c2)[nH][nH]1 [CMB-087235-1]
EC50 [1]: 360 nM
EC50 [2]: 760 nM
Corresponding % viability: 130%

O=c1cc(CS(=O)(=O)c2cc(Cl)cc(Cl)c2)[nH][nH]1 [CMB-087235-2]
Corresponding % viability: 132%
EC50 [3]: 670 nM
EC50 [4]: 1410 nM

CCc1ccc(OCc2cc(=O)[nH][nH]2)cc1 [CMB-087241-1]
EC50 [1]: 3290 nM
EC50 [2]: 1960 nM
Corresponding % viability: 88%

O=c1cc(COc2ccc(Cl)c(Cl)c2)[nH][nH]1 [CMB-087242-1]
EC50 [1]: 130 nM
EC50 [2]: 580 nM
Corresponding % viability: 136%

O=c1cc(COc2cc(C(F)(F)F)cc(C(F)(F)F)c2)[nH][nH]1 [CMB-087260-1]
EC50 [1]: 130 nM
EC50 [2]: 580 nM
Corresponding % viability: 120%

Cn1[nH]c(COc2cc(Cl)cc(C(F)(F)F)c2)cc1=O [CMB-087264-1]
EC50 [1]: 6670 nM
EC50 [2]: 5130 nM
Corresponding % viability: 109%

Cn1[nH]c(COc2ccc(Cl)cc2)cc1=O [CMB-087362-1]
EC50 [1]: 7600 nM
EC50 [2]: 5850 nM
Corresponding % viability: 107%

Cn1c(COc2cc(Cl)cc(Cl)c2)cc(=O)n1C [CMB-087363-1]
EC50 [1]: > 32000 nM

O=c1cc(COc2cc(F)cc(F)c2)[nH][nH]1 [CMB-087627-1]
EC50 [1]: 3210 nM
EC50 [2]: 1070 nM
Corresponding % viability: 125%
